pEC50: −log10 of the molar value.
Experiments:
[1] = tested on: not transfected HEK-293 cells; experiment: Effect on [Ca2+]i in not transfected HEK-293 cells (baseline); assay type: cell-based, human; details: AITC 100 μM
Description: Compound and extracts’ effects on intracellular Ca^2+ concentration ([Ca^2+]i) were determined using the selective intracellular fluorescent probe for Ca^2+ Fluo-4. Assay of rat TRPA1, TRPV2, TRPV3, TRPV4, TRPM8 or human TRPV1 mediated elevation of intracellular Ca^2+ in transfected HEK-293 cells are been performed as described. Briefly, human embryonic kidney (HEK-293) cells, stably transfected with rat TRPA1, TRPV2, TRPV3, TRPV4, TRPM8 or human TRPV1 (selected by Geneticin 600 μg mL^−1) or not transfected, were cultured in EMEM + 2 mM Glutamine + 1% Non-Essential Amino Acids (NEAA) + 10% FBS and maintained at 37 °C with 5% CO2. Stable transfections were checked by quantitative real-time polymerase chain reaction (PCR), quantitative real-time PCR was performed by an iCycler-iQ (Bio-Rad, Hercules, CA, USA) in a 20 μL reaction mixture containing the following: 10 μL iQ SYBR Green Supermix 2X (Bio-Rad), 20 ng of cDNA (calculated on the basis of the retro-transcribed RNA), and 330 nM for each primer. […] Cell fluorescence before and after the addition of various concentrations of test compounds and extracts were measured normalizing the effects against the response to ionomycin (4 µM). […] The potency of the compounds (EC50 values) are determined as the concentration required to produce half-maximal increases in [Ca^2+]i. […]

[2] = molecular target: T1, rat TRPA1 (Rattus norvegicus, UniProt Q6RI86); set-up: method as in PMID 28903060; details: TRPA1 in vitro; cited from earlier work
T1 construct: expressed in transfected cells; host or cells: HEK-293
T1 sequence (Q6RI86 whole entry): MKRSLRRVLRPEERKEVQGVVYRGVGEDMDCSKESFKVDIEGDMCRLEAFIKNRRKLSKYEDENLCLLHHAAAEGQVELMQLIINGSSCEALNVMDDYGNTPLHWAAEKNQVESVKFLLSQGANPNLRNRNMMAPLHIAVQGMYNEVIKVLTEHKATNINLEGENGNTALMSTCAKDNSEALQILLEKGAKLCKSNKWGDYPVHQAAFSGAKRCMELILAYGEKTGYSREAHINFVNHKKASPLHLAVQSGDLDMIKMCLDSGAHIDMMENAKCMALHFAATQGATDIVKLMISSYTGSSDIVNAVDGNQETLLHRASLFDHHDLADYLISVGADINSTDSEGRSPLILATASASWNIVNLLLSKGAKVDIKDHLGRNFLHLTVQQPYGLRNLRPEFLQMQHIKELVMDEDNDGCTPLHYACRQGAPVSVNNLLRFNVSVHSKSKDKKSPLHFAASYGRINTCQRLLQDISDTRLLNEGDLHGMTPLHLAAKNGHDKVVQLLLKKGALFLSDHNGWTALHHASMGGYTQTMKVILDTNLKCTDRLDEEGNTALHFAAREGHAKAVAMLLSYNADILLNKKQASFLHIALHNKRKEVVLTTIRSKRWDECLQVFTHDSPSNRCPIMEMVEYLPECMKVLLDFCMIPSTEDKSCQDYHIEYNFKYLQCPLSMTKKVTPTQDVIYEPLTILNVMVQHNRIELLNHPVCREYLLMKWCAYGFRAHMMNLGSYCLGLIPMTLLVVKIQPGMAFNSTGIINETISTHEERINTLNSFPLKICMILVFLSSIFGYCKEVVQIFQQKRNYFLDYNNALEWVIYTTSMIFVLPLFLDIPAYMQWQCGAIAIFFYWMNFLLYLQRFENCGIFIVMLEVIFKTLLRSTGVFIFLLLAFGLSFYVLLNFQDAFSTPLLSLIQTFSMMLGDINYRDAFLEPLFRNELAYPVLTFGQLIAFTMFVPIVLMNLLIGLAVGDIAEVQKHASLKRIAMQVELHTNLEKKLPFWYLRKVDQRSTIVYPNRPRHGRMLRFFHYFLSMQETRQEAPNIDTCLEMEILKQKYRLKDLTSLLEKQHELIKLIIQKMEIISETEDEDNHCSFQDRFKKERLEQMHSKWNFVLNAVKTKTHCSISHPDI

Compound	Effect on not transfected HEK-293 cells [1]	pEC50 [2]
C=CCN=C=S [AITC, Allylisothiocyanate, reference compound]	about 1%	–
COc1cc(/C=C/C(=O)CC(=O)/C=C/c2ccc(O)c(OC)c2)ccc1O [curcumin]	–	5.48
